ChEMBL document CHEMBL3885861, “Open TG-GATES”

Species: Rattus norvegicus
Experiment: Open TG-GATES - Regimen: Single
Type: toxicity, organism-based, Sprague-Dawley
Parameters: regimen Single, gender Male, age 6 weeks
Conditions: in vivo, ip, 0.003 mg/kg, route intraperitoneal injection, dose 3 ug/Kg, dose level Middle; for APTT / Bas / Eos / Fbg / Hb / Ht / Lym / MCH / MCHC / MCV / Mono / Neu / PT / Plat / RBC / Ret / WBC: tissue Blood; for KIDNEY_L / KIDNEY_R / KIDNEY_TOTAL: tissue Kidney; for LIVER: tissue Liver; for A/G / ALP / ALT / AST / BUN / CRE / Ca / Cl / DBIL / GLC / IP / K / LDH / Na / PL / RALB / TBIL / TC / TG / TP / gamma-GTP: tissue Plasma

H-KGDRLS-OH [TNF-ALPHA]
TERMINAL_BW (3 h): 199 g | APTT (3 h): 17.3 s | Bas (3 h): 0% | Eos (3 h): 0.4% | Fbg (3 h): 265 mg/dL | Hb (3 h): 13 g/dL | Ht (3 h): 39.9% | Lym (3 h): 70.4% | MCH (3 h): 21.1 pg | MCHC (3 h): 32.6% | MCV (3 h): 64.9 fL | Mono (3 h): 4.2% | Neu (3 h): 23% | PT (3 h): 15.9 s | Plat (3 h): 112.9 x10_4/uL | RBC (3 h): 614.6 x10_4/ul | Ret (3 h): 9.2% | WBC (3 h): 88.2 x10_2/uL | KIDNEY_L (3 h): 0.9 g | KIDNEY_R (3 h): 0.9 g | KIDNEY_TOTAL (3 h): 1.8 g | LIVER (3 h): 9.3 g | A/G (3 h): 0.9 | ALP (3 h): 1480.4 IU/L | ALT (3 h): 47.6 IU/L | AST (3 h): 75.8 IU/L | BUN (3 h): 10.8 mg/dL | CRE (3 h): 0.2 mg/dL | Ca (3 h): 10.8 mg/dL | Cl (3 h): 104.8 meq/L | DBIL (3 h): 0.01 mg/dL | GLC (3 h): 162.2 mg/dL | IP (3 h): 9.2 mg/dL | K (3 h): 4.3 meq/L | LDH (3 h): 68 IU/L | Na (3 h): 141.6 meq/L | PL (3 h): 137 mg/dL | RALB (3 h): 2.5 g/dL | TBIL (3 h): 0.052 mg/dL | TC (3 h): 73 mg/dL | TG (3 h): 61.8 mg/dL | TP (3 h): 5.3 g/dL | gamma-GTP (3 h): 1.4 IU/L | TERMINAL_BW (6 h): 197.1 g | APTT (6 h): 17.1 s | Bas (6 h): 0% | Eos (6 h): 0.4% | Fbg (6 h): 321.4 mg/dL | Hb (6 h): 13 g/dL | Ht (6 h): 39.7% | Lym (6 h): 63.4% | MCH (6 h): 21.5 pg | MCHC (6 h): 33% | MCV (6 h): 65.1 fL | Mono (6 h): 2.6% | Neu (6 h): 32% | PT (6 h): 15.1 s | Plat (6 h): 110.6 x10_4/uL | RBC (6 h): 610.4 x10_4/ul | Ret (6 h): 8% | WBC (6 h): 81.9 x10_2/uL | KIDNEY_L (6 h): 0.9 g | KIDNEY_R (6 h): 0.9 g | KIDNEY_TOTAL (6 h): 1.8 g | LIVER (6 h): 8.7 g | A/G (6 h): 0.9 | ALP (6 h): 1155.6 IU/L | ALT (6 h): 39.8 IU/L | AST (6 h): 65.8 IU/L | BUN (6 h): 8.6 mg/dL | CRE (6 h): 0.2 mg/dL | Ca (6 h): 10.7 mg/dL | Cl (6 h): 105.6 meq/L | DBIL (6 h): 0.008 mg/dL | GLC (6 h): 170.4 mg/dL | IP (6 h): 10.2 mg/dL | K (6 h): 3.7 meq/L | LDH (6 h): 72.8 IU/L | Na (6 h): 143.4 meq/L | PL (6 h): 147.6 mg/dL | RALB (6 h): 2.5 g/dL | TBIL (6 h): 0.06 mg/dL | TC (6 h): 84.4 mg/dL | TG (6 h): 27.2 mg/dL | TP (6 h): 5.4 g/dL | gamma-GTP (6 h): 1 IU/L | TERMINAL_BW (9 h): 194.9 g | APTT (9 h): 17.3 s | Bas (9 h): 0% | Eos (9 h): 0.4% | Fbg (9 h): 380.6 mg/dL | Hb (9 h): 12.9 g/dL | Ht (9 h): 39.7% | Lym (9 h): 66.2% | MCH (9 h): 21.2 pg | MCHC (9 h): 32.4% | MCV (9 h): 65.5 fL | Mono (9 h): 2.6% | Neu (9 h): 29.8% | PT (9 h): 15.4 s | Plat (9 h): 104.9 x10_4/uL | RBC (9 h): 606.6 x10_4/ul | Ret (9 h): 8.3% | WBC (9 h): 75.4 x10_2/uL | KIDNEY_L (9 h): 0.9 g | KIDNEY_R (9 h): 0.9 g | KIDNEY_TOTAL (9 h): 1.8 g | LIVER (9 h): 7.9 g | A/G (9 h): 0.9 | ALP (9 h): 1301.4 IU/L | ALT (9 h): 36.4 IU/L | AST (9 h): 71.4 IU/L | BUN (9 h): 7.6 mg/dL | CRE (9 h): 0.2 mg/dL | Ca (9 h): 10.6 mg/dL | Cl (9 h): 105.6 meq/L | DBIL (9 h): 0.004 mg/dL | GLC (9 h): 159 mg/dL | IP (9 h): 9.5 mg/dL | K (9 h): 4 meq/L | LDH (9 h): 46.6 IU/L | Na (9 h): 142 meq/L | PL (9 h): 155.4 mg/dL | RALB (9 h): 2.5 g/dL | TBIL (9 h): 0.062 mg/dL | TC (9 h): 92.6 mg/dL | TG (9 h): 25.2 mg/dL | TP (9 h): 5.3 g/dL | gamma-GTP (9 h): 1 IU/L | TERMINAL_BW (24 h): 211 g | APTT (24 h): 14.6 s | Bas (24 h): 0% | Eos (24 h): 1% | Fbg (24 h): 361.4 mg/dL | Hb (24 h): 12.8 g/dL | Ht (24 h): 39.4% | Lym (24 h): 77.6% | MCH (24 h): 20.7 pg | MCHC (24 h): 32.6% | MCV (24 h): 63.6 fL | Mono (24 h): 3.2% | Neu (24 h): 14.8% | PT (24 h): 15.5 s | Plat (24 h): 115.8 x10_4/uL | RBC (24 h): 619 x10_4/ul | Ret (24 h): 8% | WBC (24 h): 65.2 x10_2/uL | KIDNEY_L (24 h): 0.9 g | KIDNEY_R (24 h): 0.9 g | KIDNEY_TOTAL (24 h): 1.8 g | LIVER (24 h): 10 g | A/G (24 h): 0.9 | ALP (24 h): 1666.2 IU/L | ALT (24 h): 42.8 IU/L | AST (24 h): 71.2 IU/L | BUN (24 h): 16.4 mg/dL | CRE (24 h): 0.2 mg/dL | Ca (24 h): 11.1 mg/dL | Cl (24 h): 106.8 meq/L | DBIL (24 h): 0.01 mg/dL | GLC (24 h): 177.8 mg/dL | IP (24 h): 8.5 mg/dL | K (24 h): 4.3 meq/L | LDH (24 h): 74.6 IU/L | Na (24 h): 142.4 meq/L | PL (24 h): 155 mg/dL | RALB (24 h): 2.6 g/dL | TBIL (24 h): 0.042 mg/dL | TC (24 h): 80.4 mg/dL | TG (24 h): 80.8 mg/dL | TP (24 h): 5.7 g/dL | gamma-GTP (24 h): 1 IU/L
